{"source": "patent US12559573B2", "about": "“Biotin-specific monoclonal antibody and use thereof” (Roche Diagnostics Operations, Inc., priority 2016, dated 2026)", "assay": "Biotin interference in Elecsys TSH sandwich assay", "conditions": "control reagent without anti-biotin antibody", "method": "The control sample for the Elecsys TSH assay, PreciControl Universal 2 is spiked with rising concentrations of biotin (e.g. 0, 100 and 200 ng/mL final concentration of biotin). Reagent 2 of the Elecsys TSH sales kit containing the anti TSH detection-antibody is used in a unmodified version (control), and a modified version, additionally containing 300 μg/mL of an monoclonal anti Biotin antibody according to the invention. The sandwich assay is performed according to the routine assay protocol for the Elecsys TSH assay: Shortly, 50 μL of Sample (PreciControl Universal 2 with or without biotin) are incubated with 60 μL of Reagent 1 of the Elecsys TSH kit containing the biotinylated anti-TSH antibody and 50 μL of Reagent 2 containing the ruthenylated anti-TSH antibody with or without further addition of 300 μg/mL of the monoclonal anti Biotin antibody. After incubation at 37° C. for 9 min, 40 μL suspension of streptavidin coated magnetic beads of the Elecsys TSH kit are added, the reaction is incubated for another 9 min and finally the reaction mixture is aspirated into the measuring cell where the microparticles are magnetically captured onto the surface of the electrode. Unbound substances are then removed with ProCell. Application of a voltage to the electrode then induces electrochemiluminescense-based emission of light which is measured by a photomultiplier."}
{"smiles": "O=C(O)CCCC[C@@H]1SC[C@@H]2NC(=O)N[C@@H]21", "note": "[biotin, 5-[(3aS,4S,6aR)-2-oxo-1,3,3a,4,6,6a-hexahydrothieno[3,4-d]imidazol-4-yl]pentanoic acid]", "values": [{"measurement": "Signal relative to reference signal (sample without biotin)", "setting": "100 ng/mL biotin in sample", "result": 53, "unit": "%"}, {"measurement": "Signal relative to reference signal (sample without biotin)", "setting": "200 ng/mL biotin in sample", "result": 16, "unit": "%"}]}
